Results taken from ChEMBL document CHEMBL3856198, “Synthesis of novel 17-(4'-formyl)pyrazolylandrosta-5,16-dienes and their derivatives as potent 17α-hydroxylase/C17,20-lyase inhibitors or antiproliferative agents depending on the substitution pattern of the heteroring” (Eur J Med Chem, 2016).

Legend:
[1] = Growth inhibition of human MDA-MB-231 cells at 10 uM after 72 hrs by MTT assay; type: functional; conditions: MDA-MB-231, 72 h, read-out: GI
[2] = Growth inhibition of human MCF7 cells at 10 uM after 72 hrs by MTT assay; type: functional; conditions: MCF7, 72 h, read-out: GI
[3] = Growth inhibition of human T47D cells at 30 uM after 72 hrs by MTT assay; type: functional; conditions: read-out: GI
[4] = Growth inhibition of human MDA-MB-231 cells at 30 uM after 72 hrs by MTT assay; type: functional; conditions: MDA-MB-231, 72 h, read-out: GI
[5] = molecular target: T1, Steroid 17-alpha-hydroxylase/17,20 lyase (Rattus norvegicus, UniProt P11715); assay: Potency index, ratio of ketoconazole IC50 to compound IC50 for Wistar rat testicular C17,20-lyase
T1 sequence (P11715 whole entry): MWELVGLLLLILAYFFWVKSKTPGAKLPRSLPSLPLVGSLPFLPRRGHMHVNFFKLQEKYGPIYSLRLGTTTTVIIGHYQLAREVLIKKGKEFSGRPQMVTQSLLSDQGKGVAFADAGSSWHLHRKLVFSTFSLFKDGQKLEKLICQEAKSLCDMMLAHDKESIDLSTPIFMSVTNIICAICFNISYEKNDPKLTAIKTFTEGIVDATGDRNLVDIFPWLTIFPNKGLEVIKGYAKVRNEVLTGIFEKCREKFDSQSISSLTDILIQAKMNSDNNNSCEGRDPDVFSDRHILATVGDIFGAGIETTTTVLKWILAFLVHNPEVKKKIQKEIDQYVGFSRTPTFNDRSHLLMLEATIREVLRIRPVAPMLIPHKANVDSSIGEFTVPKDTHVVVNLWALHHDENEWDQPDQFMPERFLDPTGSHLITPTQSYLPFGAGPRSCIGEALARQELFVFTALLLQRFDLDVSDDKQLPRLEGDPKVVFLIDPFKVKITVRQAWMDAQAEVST

[6] = Growth inhibition of human MCF7 cells at 30 uM after 72 hrs by MTT assay; type: functional; conditions: MCF7, 72 h, read-out: GI
[7] = Growth inhibition of human MDA-MB-361 cells at 10 uM after 72 hrs by MTT assay; type: functional; conditions: MDA-MB-361, 72 h, read-out: GI
[8] = Growth inhibition of human T47D cells at 10 uM after 72 hrs by MTT assay; type: functional; conditions: read-out: GI
[9] = Growth inhibition of human MDA-MB-361 cells at 30 uM after 72 hrs by MTT assay; type: functional; conditions: MDA-MB-361, 72 h, read-out: GI
[10] = molecular target: T1, Steroid 17-alpha-hydroxylase/17,20 lyase; assay: Inhibition of Wistar rat testicular C17,20-lyase assessed as androst-4-ene-3,17-dione formation using [3H]17-hydroxyprogesterone as substrate in presence of NADPH
[11] = Growth inhibition of human MDA-MB-231 cells after 72 hrs by MTT assay; type: functional, cell-based; conditions: MDA-MB-231, 72 h
[12] = Growth inhibition of human MDA-MB-361 cells after 72 hrs by MTT assay; type: functional, cell-based; conditions: MDA-MB-361, 72 h
[13] = Growth inhibition of human T47D cells after 72 hrs by MTT assay; type: functional, cell-based
[14] = Growth inhibition of human MCF7 cells after 72 hrs by MTT assay; type: functional, cell-based; conditions: MCF7, 72 h

**Q.** Which inhibition of growth at 10 µM [1] does the source give for `C[C@]12CC[C@H](O)CC1=CC[C@@H]1[C@@H]2CC[C@]2(C)C(c3n[nH]cc3CO)=CC[C@@H]12` here?
**A.** < 20%

**Q.** And the inhibition of growth at 10 µM [2]?
**A.** < 20%

**Q.** What about the inhibition of growth at 30 µM [3] of the same compound?
**A.** 25.7%

**Q.** What about the inhibition of growth at 30 µM [4] of the same compound?
**A.** < 20%

**Q.** And the “Ratio IC50” value [5]?
**A.** 12

**Q.** And the inhibition of growth at 30 µM [6]?
**A.** < 20%

**Q.** And the inhibition of growth at 10 µM [7]?
**A.** < 20%

**Q.** What about the inhibition of growth at 10 µM [8] of the same compound?
**A.** < 20%

**Q.** What about the inhibition of growth at 30 µM [9] of the same compound?
**A.** 35.6%

**Q.** What about the IC50 [10] of the same compound?
**A.** 0.026 µM

**Q.** With `C[C@]12CC[C@H](O)CC1=CC[C@@H]1[C@@H]2CC[C@]2(C)C(c3nn(-c4ccc(Cl)cc4)cc3CO)=CC[C@@H]12` as the compound, how does the inhibition of growth at 10 µM [1] read?
**A.** 93.2%

**Q.** And the inhibition of growth at 10 µM [2]?
**A.** 54.3%

**Q.** And the inhibition of growth at 30 µM [3]?
**A.** 94.8%

**Q.** And the IC50 [11]?
**A.** 3.6 µM

**Q.** And the inhibition of growth at 30 µM [4]?
**A.** 97.8%

**Q.** And the inhibition of growth at 30 µM [6]?
**A.** 90.9%

**Q.** What about the inhibition of growth at 10 µM [7] of the same compound?
**A.** 80%

**Q.** What about the IC50 [12] of the same compound?
**A.** 2.5 µM

**Q.** What about the inhibition of growth at 10 µM [8] of the same compound?
**A.** 81%

**Q.** And the inhibition of growth at 30 µM [9]?
**A.** 93.1%

**Q.** And the IC50 [13]?
**A.** 5.7 µM

**Q.** What does the source list for `C[C@]12CC[C@H](O)CC1=CC[C@@H]1[C@@H]2CC[C@]2(C)C(c3n[nH]cc3C#N)=CC[C@@H]12`?
**A.** inhibition of growth at 10 µM [1]: 23.3%; inhibition of growth at 10 µM [2]: 36.6%; inhibition of growth at 30 µM [3]: 75.7%; inhibition of growth at 30 µM [4]: 88.4%; inhibition of growth at 30 µM [6]: 63.4%; inhibition of growth at 10 µM [7]: 46.6%; inhibition of growth at 10 µM [8]: 46.8%; inhibition of growth at 30 µM [9]: 80.4%; IC50 [10]: 0.092 µM

**Q.** With `C[C@]12CC[C@H](O)CC1=CC[C@@H]1[C@@H]2CC[C@]2(C)C(c3nn(-c4ccccc4)cc3C=O)=CC[C@@H]12` as the compound, how does the inhibition of growth at 10 µM [1] read?
**A.** 93.5%

**Q.** And the inhibition of growth at 10 µM [2]?
**A.** 93.4%

**Q.** What about the inhibition of growth at 30 µM [3] of the same compound?
**A.** 96.9%

**Q.** And the IC50 [11]?
**A.** 5.4 µM

**Q.** And the inhibition of growth at 30 µM [4]?
**A.** 96.3%

**Q.** What about the inhibition of growth at 30 µM [6] of the same compound?
**A.** 98.1%

**Q.** What about the inhibition of growth at 10 µM [7] of the same compound?
**A.** 88.6%

**Q.** And the IC50 [14]?
**A.** 3.7 µM

**Q.** What about the IC50 [12] of the same compound?
**A.** 3.8 µM

**Q.** What about the inhibition of growth at 10 µM [8] of the same compound?
**A.** 93.2%

**Q.** What about the inhibition of growth at 30 µM [9] of the same compound?
**A.** 95.8%

**Q.** What about the IC50 [13] of the same compound?
**A.** 3.9 µM

**Q.** For `COc1ccc(-n2cc(C=O)c(C3=CC[C@H]4[C@@H]5CC=C6C[C@@H](O)CC[C@]6(C)[C@H]5CC[C@]34C)n2)cc1`, which inhibition of growth at 10 µM [1] is on record?
**A.** 96.1%

**Q.** And the inhibition of growth at 10 µM [2]?
**A.** 92.3%

**Q.** What about the inhibition of growth at 30 µM [3] of the same compound?
**A.** 96.7%

**Q.** What about the IC50 [11] of the same compound?
**A.** 3.6 µM

**Q.** And the inhibition of growth at 30 µM [4]?
**A.** 96.2%

**Q.** And the inhibition of growth at 30 µM [6]?
**A.** 98.1%

**Q.** And the inhibition of growth at 10 µM [7]?
**A.** 89.6%

**Q.** What about the IC50 [14] of the same compound?
**A.** 3.8 µM

**Q.** And the IC50 [12]?
**A.** 3.3 µM

**Q.** What about the inhibition of growth at 10 µM [8] of the same compound?
**A.** 92.5%

**Q.** And the inhibition of growth at 30 µM [9]?
**A.** 96.2%

**Q.** What about the IC50 [13] of the same compound?
**A.** 3.7 µM

**Q.** For `C[C@]12CC[C@H](O)CC1=CC[C@@H]1[C@@H]2CC[C@]2(C)C(c3nn(-c4ccccc4)cc3CO)=CC[C@@H]12`, which inhibition of growth at 10 µM [1] is on record?
**A.** 85.2%

**Q.** What about the inhibition of growth at 10 µM [2] of the same compound?
**A.** 79.2%

**Q.** What about the inhibition of growth at 30 µM [3] of the same compound?
**A.** 90.6%

**Q.** And the IC50 [11]?
**A.** 5.2 µM

**Q.** What about the inhibition of growth at 30 µM [4] of the same compound?
**A.** 93.2%

**Q.** What about the inhibition of growth at 30 µM [6] of the same compound?
**A.** 89.8%

**Q.** And the inhibition of growth at 10 µM [7]?
**A.** 90.6%

**Q.** And the IC50 [14]?
**A.** 3.4 µM

**Q.** And the IC50 [12]?
**A.** 2.1 µM

**Q.** And the inhibition of growth at 10 µM [8]?
**A.** 74.4%

**Q.** And the inhibition of growth at 30 µM [9]?
**A.** 96.1%

**Q.** With `C[C@]12CC[C@H](O)CC1=CC[C@@H]1[C@@H]2CC[C@]2(C)C(c3nn(-c4ccc(C#N)cc4)cc3CO)=CC[C@@H]12` as the compound, how does the inhibition of growth at 10 µM [1] read?
**A.** 95.9%

**Q.** And the inhibition of growth at 10 µM [2]?
**A.** 71.6%

**Q.** What about the inhibition of growth at 30 µM [3] of the same compound?
**A.** 94.5%

**Q.** What about the IC50 [11] of the same compound?
**A.** 1.8 µM

**Q.** What about the inhibition of growth at 30 µM [4] of the same compound?
**A.** 96.4%

**Q.** And the inhibition of growth at 30 µM [6]?
**A.** 88.4%

**Q.** And the inhibition of growth at 10 µM [7]?
**A.** 86.5%

**Q.** What about the IC50 [14] of the same compound?
**A.** 1.4 µM

**Q.** What about the IC50 [12] of the same compound?
**A.** 1.6 µM

**Q.** What about the inhibition of growth at 10 µM [8] of the same compound?
**A.** 89.6%

**Q.** What about the inhibition of growth at 30 µM [9] of the same compound?
**A.** 91.9%

**Q.** What about the IC50 [13] of the same compound?
**A.** 1.2 µM

**Q.** Which IC50 [10] does the source give for `C[C@]12CC[C@H](O)CC1=CC[C@@H]1[C@@H]2CC[C@]2(C)C(c3ccn[nH]3)=CC[C@@H]12` here?
**A.** 0.0077 µM

**Q.** Which results are given for `C[C@]12CC[C@H](O)CC1=CC[C@@H]1[C@@H]2CC[C@]2(C)C(c3cccnc3)=CC[C@@H]12` [ABIRATERONE]?
**A.** inhibition of growth at 10 µM [1]: 14.3%; inhibition of growth at 10 µM [2]: 12.4%; inhibition of growth at 30 µM [3]: 70.8%; IC50 [11]: 19.2 µM; inhibition of growth at 30 µM [4]: 85%; inhibition of growth at 30 µM [6]: 74.7%; inhibition of growth at 10 µM [7]: 32.2%; IC50 [14]: 19.3 µM; IC50 [12]: 20.4 µM; inhibition of growth at 10 µM [8]: 32.5%; inhibition of growth at 30 µM [9]: 61.2%; IC50 [13]: 16.9 µM

**Q.** Which inhibition of growth at 10 µM [1] does the source give for `C[C@]12CC[C@H](O)CC1=CC[C@@H]1[C@@H]2CC[C@]2(C)C(c3nn(-c4ccc(Br)cc4)cc3CO)=CC[C@@H]12` here?
**A.** 76.8%

**Q.** What about the inhibition of growth at 10 µM [2] of the same compound?
**A.** 65.9%

**Q.** And the inhibition of growth at 30 µM [3]?
**A.** 85.9%

**Q.** And the IC50 [11]?
**A.** 4 µM

**Q.** What about the inhibition of growth at 30 µM [4] of the same compound?
**A.** 88.2%

**Q.** And the inhibition of growth at 30 µM [6]?
**A.** 86.9%

**Q.** And the inhibition of growth at 10 µM [7]?
**A.** 83.5%

**Q.** What about the IC50 [12] of the same compound?
**A.** 2 µM

**Q.** And the inhibition of growth at 10 µM [8]?
**A.** 68.2%

**Q.** What about the inhibition of growth at 30 µM [9] of the same compound?
**A.** 91.5%

**Q.** Which results are given for `C[C@]12CC[C@H](O)CC1=CC[C@@H]1[C@@H]2CC[C@]2(C)C(c3n[nH]cc3C=O)=CC[C@@H]12`?
**A.** inhibition of growth at 10 µM [1]: 54.3%; inhibition of growth at 10 µM [2]: 31.4%; inhibition of growth at 30 µM [3]: 77%; inhibition of growth at 30 µM [4]: 93.7%; inhibition of growth at 30 µM [6]: 80.8%; inhibition of growth at 10 µM [7]: 42.6%; inhibition of growth at 10 µM [8]: 43.2%; inhibition of growth at 30 µM [9]: 79.7%; IC50 [10]: 0.066 µM
